Entries after “also recorded” stand apart in the source; their conditions may differ.
What was measured:
jejunum of C3H mice = settings: mouse, in vivo, 2 mg/kg
Protocol: (§1) C3H female mice, 11-13 weeks of age, were used in this study.
(§2) The dynamic enteroscintigraphy with ^99m Tc-pertechnetate and the morphology studies were performed as described above in Example 1.

jejunal crypts = assay: Jejunal microcolony assay (surviving crypts); assay type: in vivo, C3H mice; settings: 3.5 days, vs control
Protocol: (§3) At 3.5 days after irradiation with 4, 6, 8 and 12.5 Gy and immediately upon completion of the absorption study, groups of 4-5 mice per radiation dose were killed by cervical dislocation and a 2-cm length of jejunum was removed for histological preparation. Intestinal segments were fixed in 10% neutral buffered formalin. Four transverse sections of intestine were prepared embedded into paraffin, cut at a thickness of 4 μm and stained with hematoxylin and eosin (H&E). Slides with tissue sections were examined with light microscopy under 400-power magnification. A total of 500 crypt cells per mouse form 12-16 complete crypts were scored as mitotic or apoptotic. The jejunum microcolony assay of H. R. Withers et al., J. Rad. Biol., 17, 261 (1970) was used to quantify jejunal crypt survival. Tissue sections were scored microscopically using 100-power magnification. Surviving crypts contained at least 10 tightly packed columnar epithelial cells located in the base of the crypt (discrete cell microcolonies). The number of surviving crypts/circumference of jejunum was plotted as a function of radiation dose in Gy.
as §1, §2

[1] = Toxicity of 9-aminocamptothecin; settings: single 2 mg/kg 9-AC intramuscular injection
jejunal mucosa [2] = assay type: in vivo, C3H mice; settings: 2 mg/kg 9-AC + 4 Gy TBI, day 3.5
Protocol: as §3, §1, §2

intestinal villi = assay type: in vivo, C3H mice; settings: 9-AC (4 mg/kg), 3.5 days
Protocol: as §3, §1, §2

[3] = general statement; cited from earlier work
[4] = system: intestine lumen / technetium pertechnetate active transport
[5] = system: intestine lumen / technetium pertechnetate active transport; settings: mouse, in vivo; cited from earlier work
jejunal mucosa [6] = settings: literature, cited from earlier work
jejunal mucosa [7] = settings: intraluminal, after 12.5 Gy TBI
Protocol: To exclude a role of simple diffusion ("leakage") of the tracer through the irradiated GI mucosa studies of the intestinal permeability with ^67 Ga-citrate complex introduced into the jejunal lumen at 84 hours after exposure to 12.5 Gy were performed.
In order to evaluate if ^99m TcO^-4 absorption remains an active transport process in irradiated animals rather than passive diffusion or "leakage" phenomenon, studies were performed on irradiated gut permeability with ^67 Ga citrate complex.

[8] = literature, cited from earlier work
mouse jejunal mucosa = assay: Dynamic enteroscintigraphy of jejunal absorption of ^99m TcO^-4 after total body irradiation; assay type: in vivo, C3Hf/Kam mice; settings: for effect of irradiation on intestinal absorption: 4, 6, 8 and 12.5 Gy TBI
From the text: The effect of irradiation on pertechnetate (^99m TcO^-4) absorption in the mouse jejunum was studied in situ following single acute total body irradiation (TBI) with 4 Gy, 6 Gy, 8 Gy, and 12.5 Gy. During irradiation, three unanesthetized mice were placed in a 20×20×3.5 cm air-ventilated plastic jig and exposed to a single-source ^60 Co irradiator (Theratron 780-C) at a dose rate of […], with open irradiation field and 71 cm SSD. This setting assured homogeneous dose distribution within ±3% error.
Four to five mice per irradiation dose of 4 Gy, 6 Gy, 8 Gy and 12.5 Gy per day after irradiation (6 Gy irradiated group) were studied for the intestinal absorption function. The mice were fasted overnight (waster ad libitum) and then anesthetized with 100 μL of 1.5 mg/g ketamine solution injected intraperitoneally. The procedure began with a short midline incision of the abdomen after onset of deep anesthesia, and a 3 cm segment of the upper jejunum was identified, ligated with cotton sutures and catheterized with 0.2 mm flexible plastic catheter.
Next, the abdomen incision was closed with cotton sutures and the mouse was positioned under the collimated detector so the 1.5 cm window of the collimator was viewed at the heart projection with 0.2 cm skin-to-collimator distance. A 100 μL physiologic solution containing 100 μCi of Na(^99m TcO4) was rapidly injected through the catheter into the proximal end of the isolated jejunal segment with complete filling of the entire segment.
The absorption rate of ^99m TcO^-4 from the site of injection into the circulation was recorded automatically by measuring the relative radioactivity build-up rate above the heart projection with the frequency of two measurements per second. The entire dynamic enteroscintigraphy procedure took about 15 minutes in control mice. The systemic absorption of the pertechnetate (^99m TcO^-4) was performed on a standard scintillation radiometer combined with a multichannel analyzer (Ludlum Measurements, Sweetwater, Tex.) to record the radiometry data in time-dependent fashion. The software ULTIMA-4 was used to receive the graphic imaging of the dynamic radiometry data.
Measured activity/time curves detected above the heart are mathematically modeled as exponential saturation of the form y(t)=y0+dy {1-exp[-k(t-t0)]}; where y(t) is the observed time-dependent radioactive counts above the heart; y0 is the observed activity at time of tracer introduction, t0; dy is the magnitude of the change in radioactive counts after tracer introduction; and k is the rate constant characteristic of the active transport of tracer through the intestinal wall into the systemic blood circulation. Analyses of tracer absorption kinetics by this expression allow precise statistical assessment of radiation-induced functional impairment of the jejunal active transport process.

CC[C@@]1(O)C(=O)OCc2c1cc1n(c2=O)Cc2cc3c(N)cccc3nc2-1 [9-aminocamptothecin]
mean rate of ^99m Tc-pertechnetate intestinal absorption (jejunum of C3H mice): significantly delayed | jejunal crypt survival (jejunal crypts; 9-AC (2 mg/kg) plus irradiation (4 Gy)): failed to show any difference in jejunal crypt survival | jejunal crypt survival (jejunal crypts; 9-AC alone (2 mg/kg)): failed to show any difference in jejunal crypt survival | 2 mg/kg intramuscular dose as fraction of LD10 [1]: 1/2 | additive decrease in absorption vs number of apoptotic cells in the jejunal mucosa (jejunal mucosa [2]): correlates well with the number of apoptotic cells in the jejunal mucosa | cell loss on the intestinal villi (intestinal villi): maximal cell loss on the intestinal villi | GI toxicity [3]: pronounced GI toxicity

[131IH] [^131 Iodine, iodine-131]
shape of intestinal absorption curve / active transport kinetics ([4]; mouse, in vivo): same shape of the ^99m TcO^-4 intestinal absorption curve was obtained

[K+].[O-][Cl+3]([O-])([O-])[O-] [KClO4, potassium perchlorate]
shift of the saturation point on the radioactivity/time curve ([4]; mouse, in vivo): shifted the saturation point on the radioactivity/time curve to the right without changes in the amount of the absorbed tracer | competitive inhibition of technetium pertechnetate active transport [5]: known competitive inhibitor

O=C([O-])CC(O)(CC(=O)[O-])C(=O)[O-].[67Ga+3] [^67 Ga-citrate]
accumulation in the sites of lesion (jejunal mucosa [6]; inflammation or local hyperthermia): augments ^67 Ga-citrate accumulation in the sites of lesion | crossing of the intestinal epithelial barrier (jejunal mucosa [6]; normal): normally does not cross the intestinal epithelial barrier | jejunal mucosa permeability (jejunal mucosa [7]): jejunal mucosa stays impermeable

technetium pertechnetate [^99m TcO^-4]
intestinal absorption into the bloodstream ([4]; control mice): Rapid absorption | metabolic activity [8]: low metabolic activity | radiotoxicity [8]: one of the least radiotoxic nuclides | γ-emission energy [8]: 140 keV | half-life ([8]; radionuclide): 6 h | effect of irradiation on intestinal absorption (mouse jejunal mucosa): substantial dose-dependent decrease in the absorption function; also recorded: significantly decreases ^99m TcO^-4 jejunal absorption | effect of irradiation on intestinal absorption (mouse jejunal mucosa; listed as 99m Technetium-pertechnetate): decreased in a dose-dependent fashion | mean rate of the tracer absorption (mouse jejunal mucosa; 4 Gy TBI, 3.5 days after irradiation): 1.51±0.15 | time of minimal absorption after irradiation (mouse jejunal mucosa; 6 Gy TBI): 3.5 days | time to return of absorption rate to a normal level (mouse jejunal mucosa; 6 Gy TBI): about 14 days | effect of irradiation on absorption function at 24 hours (mouse jejunal mucosa; 6 Gy TBI, 24 hours after irradiation): significant decrease in the absorption function; also recorded: significant effect | jejunal absorption, % of the control level (mouse jejunal mucosa; 12.5 Gy TBI, 3.5 days after irradiation, listed as 99m Technetium-pertechnetate): ~25 % of the control level | correlation of decrease in absorption with cells per villus and irradiation dose (mouse jejunal mucosa; 3.5 days after 4 to 12.5 Gy): correlated with the numbers of cells per villus and the irradiation dose | mean rate of the tracer absorption (mouse jejunal mucosa; control (no irradiation)): 1.35±0.25 | time of maximal reduction of absorption (mouse jejunal mucosa; independently of TBI doses used): 84 h
